Laboratory results published in patent US11421278B2, “Method to monitor pharmacodynamic responses mediated by in vivo administration of glucocorticoids” (BRISTOL-MYERS SQUIBB COMPANY, priority 2017, dated 2022).

What was measured:
[1] = test system: GC gene signature in whole blood; experiment: In vivo GC gene signature kinetics, Prednisoline in Healthy Male Cohort 1; parameters: species or system human
Experimental: (§1) Since the glucocorticoid (GC) signature accurately captured glucocorticoid receptor (GR) agonist activity in vitro, the behavior of the GC gene signature in vivo was tested. Normal healthy volunteers (NHV) were dosed with placebo, 10 mg prednisolone, or 150 or 300 mg GR modulator BMS-791826. Blood was drawn before and 4 hours post-dosing, and RNA was analyzed by Affymetrix gene expression profiling. […] To address the kinetics of the GC gene signature response, whole blood RNA profiles from NHVs who were administered different doses of prednisolone was analyzed. […] For all but the highest dose of prednisolone, GC gene signature scores had returned to baseline levels by 8 hours post-dose. The signature score was at baseline levels in all groups by 48 hours post-dosing.
(§2) To score an individual sample by the enrichment level of GC gene signatures, we adapted the single-sample gene set enrichment analysis (ssGSEA) algorithm (Barbie D A, et. al., Nature 2009; 462:108-12) to generate a composite score, which was implemented using the Gene Set Variation Analysis package in R (version 3.4.0, Hanzelmann S, et. al., BMC Bioinformatics 2013; 14:7). The algorithm was modified so that enrichment scores fell between −1 and 1, representing the lowest to the highest possible rankings of GC genes in the transcriptome.
Male normal healthy volunteers were randomly assigned (6 participants/group) to receive daily doses of 5, 10, or 30 mg prednisolone for 7 days. Two participants received placebo. PAXgene tubes were collected before dosing and at 2, 4, 8, 48, 144, and 216 hours post-dose.

[2] = test system: GC gene signature in whole blood; experiment: In vivo GC gene signature, Prednisoline in Healthy Male Cohort 2; parameters: species or system human; conditions: normal healthy volunteers, oral, 10 mg prednisolone or 150 or 300 mg BMS-791826, 4 hours post-dosing, versus pre-dose and placebo (FIG. 3A)
Experimental: as §1
as §2, with “transcriptome. […]” for “transcriptome.”

[3] = test system: glucocorticoid-regulated genes in whole blood; experiment: Whole blood induction of single genes, prednisolone versus placebo, Prednisoline in Healthy Male cohort 2; assay type: in vivo, human
From the text: Further refinement of the 64 member gene signature would facilitate implementation in the clinic. […] The list was further filtered for detectable expression in the abatacept SLE trial. Of the initial 64 genes, 18 (FKBP5, ECHDC3, IL1R2, ZBTB16, IRS2, IRAK3, ACSL1, DUSP1, PHC2, TLR2, TSC22D3, SLA, CRISPLD2, MAN2A2, FAR2, CEBPD, SPTLC2, HSPA6) met these criteria. The top 3 genes (FKBP5, ECHDC3 and IL1R2), top 6 genes (FKBP5, ECHDC3 IL1R2, ZBTB16, IRS2, IRAK3) and top 8 genes (FKBP5, ECHDC3, IL1R2, ZBTB16, IRS2, IRAK3, ACSL1, DUSP1) from the list were then used to calculate ssGSEA scores.
CEL files from the Affymetrix Array Station were processed and normalized using the Robust Multi-Array Average (RMA) algorithm (Gautier I, et. al., Bioinformatics 2004; 20:307-15) using the “Affy” package in R (version 3.2.1; 16) and Bioconductor (Gentleman R C, et. al. Genome Biol. 2004, 5 (10):R80) with custom CDF files from BrainArray (version 18.0.0; Dai M, et. al., Nucleic Acids Res 2005; 33:e175). Differential gene expression analysis was run to compare gene expression levels in prednisolone-treated versus control samples, using a moderated t-test (Ritchie M E, et. al., Nucleic Acids Res 2015; 43:e47) in Array Studio (OmicSoft, Cary, N.C., USA). P values were adjusted using the multiple test correction method which is also called false discovery rate (FDR, Benjamini Y, et. al., J. Royal Statistical Soc., Series B 1995; 57:289).
Male normal healthy volunteers were randomly assigned to receive either a placebo of polyethylene glycol (PEG)-400 solution (4 participants); a single daily oral dose of GR modulator BMS-791826 (150 or 300 mg) as a PEG-400 solution (6 participants/dose); or a single daily dose of 10 mg prednisolone (4 participants) for 3 consecutive days. PAXgene tubes were collected before dosing and at 4 hours post-dose on day 1.

[4] = test system: peripheral blood mononuclear cells (PBMCs); experiment: Gene expression profiling of PBMCs cultured with prednisolone or DMSO (Affymetrix); assay type: cell-based, human; conditions: 1 μM prednisolone, 6 hours
Experimental: In order to monitor glucocorticoid-dependent responses in peripheral blood, genes modulated by prednisolone in human PBMCs were identified. PBMCs from 10 independent normal healthy volunteer donors were treated with either DMSO control or 1 μM prednisolone for 6 hours.
Lymphocytes were isolated from the blood of 10 independent donors using Ficoll gradient centrifugation. Cells were cultured at 5 million lymphocytes/well of a 96-well flat-bottom block plate (Qiagen, Hilden, Germany) in 500 μl assay media (RPMI-1640 with GlutaMAX, 10% charcoal-stripped fetal bovine serum; Gibco Laboratories, Gaithersburg, Md., USA). Cells were cultured for 6 hours with either dimethyl sulfoxide (DMSO) vehicle or 1 μM prednisolone. After 6 hours, cells were pelleted and resuspended in 1 ml nucleic acid purification lysis solution (Applied Biosystems, Foster City, Calif., USA) diluted 1:2 with calcium and magnesium-free phosphate-buffered saline (Invitrogen, Carlsbad, Calif., USA). Cells were incubated in lysis buffer for 10 min at room temperature followed by storage at −80° C. RNA was isolated using the Qiagen RNeasy isolation kit according to manufacturer's instructions. […]

whole blood = experiment: Whole blood cultured in vitro, GC gene signature (ssGSEA) score; assay type: cell-based, human
From the text: Many of these genes were known glucocorticoid-regulated genes (Chinenov Y, et. al., BMC Genomics 2014; 15:656). […] Network analysis of the regulated genes indicated enrichment for immune-response pathways. Single-sample gene set enrichment analysis (ssGSEA) algorithm was used to generate a composite score (or gene signature) for enrichment of these genes in the transcriptomes of individual samples (Barbie D A, et. al. Nature 2009; 462:108-12).
For profiling of whole blood, anticoagulant citrate dextrose solution A-containing whole blood from 4 normal healthy volunteers was cultured with either DMSO vehicle, 200 nM prednisolone, 1 μM prednisolone, 5 μM prednisolone, 5 μM GR modulators BMS-791826, or 10 μM BMS-776532 for 5 hours, followed by transfer to a PAXgene tube. Total RNA was isolated, and then treated with DNase I and cleaned up using a Qiagen RNeasy MinElute Cleanup Kit. RNA concentrations were determined using NanoDrop (Thermo Fisher Scientific, Waltham, Mass., USA) and RNA quality was evaluated using the Experion electrophoresis system (Bio-Rad Laboratories, Hercules, Calif., USA). All target labeling reagents were purchased from Affymetrix (West Sacramento, Calif., USA).
Double-stranded cDNAs were synthesized from 1 μg of total RNA through reverse transcription with an oligo-dT primer containing the T7 RNA polymerase promoter and double-strand conversion using the cDNA Synthesis System (Invitrogen, Carlsbad, Calif., USA). Biotin-labeled cRNA was generated from the cDNA and used to probe a Human Genome HT_HG-U133A plate (Affymetrix, Sunnyvale, Calif., USA), consisting of 96 single HG-U133A arrays in a 96-well plate. All cDNA and cRNA target preparation steps were processed on a Caliper GeneChip Array Station from Affymetrix. Array hybridization, washing, and scanning were performed according to the manufacturer's recommendations. […]

[5] = test system: GC gene signature in whole blood; experiment: GC gene signature in baseline samples of the abatacept SLE phase II trial by reported prednisone dose; assay type: in vivo, human; conditions: SLE patients, dose high (>30 mg), medium (10-30 mg), low (<10 mg) (FIG. 4B)
Experimental: To determine if the glucocorticoid signature could differentiate between patients based on treatment status, expression of the signature in cross-sectional cohorts of patients with SLE or RA were analyzed. Relative to either normal healthy controls or patients treated with other standard-of-care medications, the patients with SLE or RA who were prescribed glucocorticoids had elevated signature scores (FIG. 4A). While the glucocorticoid signatures were elevated, there was significant inter-patient variability in the signature scores. Baseline samples from a phase II study of abatacept in SLE was analyzed (Fleishaker D L, et. al., BMC Musculoskelet Disord 2016; 17:29) for expression of the glucocorticoid gene signature (FIG. 4B). […] However, there was again significant inter-patient variability in glucocorticoid gene signature scores in all groups. This could reflect steroid resistance in some patients or compliance issues with some patients.
Baseline PAXgene collections and complete blood counts were obtained from 144 adults with SLE meeting the criteria of a British Isles Lupus Assessment Group (BILAG) score of A or B. The population at baseline consisted of 53% of patients with polyarthritis, 35% with discoid lupus, and 12% with serositis. […]

SMILES: C[C@]12C=CC(=O)C=C1CC[C@@H]1[C@@H]2[C@@H](O)C[C@@]2(C)[C@H]1CC[C@]2(O)C(=O)CO [prednisolone]
- time of peak of GC gene signature score post-dose ([1]; 5, 10 or 30 mg prednisolone): 4 h
- time by which GC gene signature scores had returned to baseline ([1]; all but the highest dose of prednisolone): ≤ 8 h
- time by which signature score was at baseline levels ([1]; all groups): ≤ 48 h
- GC gene signature score, dose dependence ([1]; normal healthy volunteers, 5, 10 or 30 mg prednisolone (FIG. 3B)): increased dose dependently
- GC signature score [2]: significantly elevated
- logFC ACSL1 [3]: 1.43
- logFC CEBPD [3]: 0.86
- logFC CRISPLD2 [3]: 0.94
- logFC DUSP1 [3]: 1.37
- logFC ECHDC3 [3]: 2.34
- logFC FAR2 [3]: 0.88
- logFC FKBP5 [3]: 2.85
- logFC HSPA6 [3]: 0.67
- logFC IRAK3 [3]: 1.45
- logFC IRS2 [3]: 1.75
- logFC MAN2A2 [3]: 0.91
- logFC PHC2 [3]: 1.15
- logFC SLA [3]: 0.98
- logFC SPTLC2 [3]: 0.75
- logFC TLR2 [3]: 1.11
- logFC TSC22D3 [3]: 1.08
- logFC ZBTB16 [3]: 2.04
- fold change of upregulated genes versus vehicle ([4]; FDR-adjusted P ≤0.05, genes of FIG. 1A): > 2 fold
- fold change of downregulated genes versus vehicle ([4]; FDR-adjusted P ≤0.05, genes of FIG. 1B): > 2 fold
- glucocorticoid gene signature score, rank order (whole blood; 5 μM prednisolone, 5 μM BMS-791826, 10 μM BMS-776532, 5 hours (FIG. 2E)): prednisolone>BMS-791826>BMS-776532
- ssGSEA score for the upregulated genes (whole blood; whole blood, different concentrations of prednisolone, 5 hours (FIG. 1C)): increased dose dependently
- expression of the downregulated genes (ssGSEA score) (whole blood; whole blood, different concentrations of prednisolone, 5 hours (FIG. 1D)): decreased in a dose-dependent manner

SMILES: C[C@]12C=CC(=O)C=C1CC[C@@H]1[C@@H]2C(=O)C[C@@]2(C)[C@H]1CC[C@]2(O)C(=O)CO [prednisone]
- glucocorticoid gene signature scores versus reported dose [5]: generally aligned well with reported prednisone dose
